Experiments:
Assay type in all cases: in vivo
Set-up in all cases: key: 5=total damage to plant; 0=no damage to plant
Avena fatua (AVEFA) [1] = assay: Post-emergence herbicidal activity, glasshouse pot test; settings: Rate 1000 g/ha; sprayed after 8 days cultivation; evaluated after 13 days
Procedure: (§1) Seeds of a variety of test species were sown in standard soil in pots: Triticum aestivium (TRZAW), Avena fatua (AVEFA), Alopecurus myosuroides (ALOMY), Echinochloa crus-galli (ECHCG), Lolium perenne (LOLPE), and Setaria faberi (SETFA). After 8 days cultivation (post-emergence) under controlled conditions in a glasshouse (at 24/16° C., day/night; 14 hours light; 65% humidity), the plants were sprayed with an aqueous spray solution derived from the formulation of the technical active ingredient in acetone/water (50:50) solution containing 0.5% Tween 20 (polyoxyethelyene sorbitan monolaurate, CAS RN 9005-64-5). The test plants were then grown in a glasshouse under controlled conditions (at 24/16° C., day/night; 14 hours light; 65% humidity) and watered twice daily. After 13 days, the test was evaluated (5=total damage to plant; 0=no damage to plant).

[2] = tested on: Triticum aestivium (TRZAW); assay: as above; settings: Rate 1000 g/ha; sprayed after 8 days cultivation; evaluated after 13 days
Procedure: as §1

[3] = tested on: Echinochloa crus-galli (ECHCG); assay: as above; settings: Rate 1000 g/ha; sprayed after 8 days cultivation; evaluated after 13 days
Procedure: as §1

[4] = tested on: Alopecurus myosuroides (ALOMY); assay: as above; settings: Rate 1000 g/ha; sprayed after 8 days cultivation; evaluated after 13 days
Procedure: as §1

Setaria faberi (SETFA) [5] = assay: as above; settings: Rate 1000 g/ha; sprayed after 8 days cultivation; evaluated after 13 days
Procedure: as §1

Lolium perenne (LOLPE) [6] = assay: as above; settings: Rate 1000 g/ha; sprayed after 8 days cultivation; evaluated after 13 days
Procedure: as §1

Avena fatua (AVEFA) [7] = assay: Pre-emergence herbicidal activity, glasshouse pot test; settings: Rate 1000 g/ha; sprayed one day after sowing; evaluated after 13 days
Procedure: as §1, with “After” for “After 8 days”, “for one day (pre-emergence)” for “(post-emergence)”

[8] = tested on: Triticum aestivium (TRZAW); assay: as above; settings: Rate 1000 g/ha; sprayed one day after sowing; evaluated after 13 days
Procedure: as §1, with “After” for “After 8 days”, “for one day (pre-emergence)” for “(post-emergence)”

[9] = tested on: Echinochloa crus-galli (ECHCG); assay: as above; settings: Rate 1000 g/ha; sprayed one day after sowing; evaluated after 13 days
Procedure: as §1, with “After” for “After 8 days”, “for one day (pre-emergence)” for “(post-emergence)”

[10] = tested on: Alopecurus myosuroides (ALOMY); assay: as above; settings: Rate 1000 g/ha; sprayed one day after sowing; evaluated after 13 days
Procedure: as §1, with “After” for “After 8 days”, “for one day (pre-emergence)” for “(post-emergence)”

Setaria faberi (SETFA) [11] = assay: as above; settings: Rate 1000 g/ha; sprayed one day after sowing; evaluated after 13 days
Procedure: as §1, with “After” for “After 8 days”, “for one day (pre-emergence)” for “(post-emergence)”

Lolium perenne (LOLPE) [12] = assay: as above; settings: Rate 1000 g/ha; sprayed one day after sowing; evaluated after 13 days
Procedure: as §1, with “After” for “After 8 days”, “for one day (pre-emergence)” for “(post-emergence)”

| Structure (SMILES) | Control of weed species after post-emergence application, AVEFA (damage score 0-5) (Avena fatua (AVEFA) [1]) | Control of weed species after post-emergence application, TRAZW (damage score 0-5) [2] | Control of weed species after post-emergence application, ECHCG (damage score 0-5) [3] | Control of weed species after post-emergence application, ALOMY (damage score 0-5) [4] | Control of weed species after post-emergence application, SETFA (damage score 0-5) (Setaria faberi (SETFA) [5]) | Control of weed species after post-emergence application, LOLPE (damage score 0-5) (Lolium perenne (LOLPE) [6]) | Control of weed species after pre-emergence application, AVEFA (damage score 0-5) (Avena fatua (AVEFA) [7]) | Control of weed species after pre-emergence application, TRAZW (damage score 0-5) [8] | Control of weed species after pre-emergence application, ECHCG (damage score 0-5) [9] | Control of weed species after pre-emergence application, ALOMY (damage score 0-5) [10] | Control of weed species after pre-emergence application, SETFA (damage score 0-5) (Setaria faberi (SETFA) [11]) | Control of weed species after pre-emergence application, LOLPE (damage score 0-5) (Lolium perenne (LOLPE) [12]) |
| --- | --- | --- | --- | --- | --- | --- | --- | --- | --- | --- | --- | --- |
| CC(C)(C)OC(=O)Nc1ncc(-c2cncc(F)c2)nc1C#N [Compound H10] | 1 | 0 | 2 | 0 | 5 | 1 | 0 | 0 | 2 | 0 | 4 | 0 |
| C=C(C)c1nc(-c2cncc(F)c2)cnc1N(C(=O)OC(C)(C)C)C(=O)OC(C)(C)C [Compound H11] | 2 | 0 | 3 | 0 | 5 | 2 | 0 | 0 | 3 | 1 | 4 | 2 |
| CC(C)(C)OC(=O)N(C(=O)OC(C)(C)C)c1ncc(-c2cncc(F)c2)nc1C1CC1 [Compound H12] | 2 | 0 | 3 | 0 | 5 | 2 | 0 | 0 | 1 | 0 | 4 | 0 |
| CC(C)c1nc(-c2cncc(F)c2)cnc1N(C(=O)OC(C)(C)C)C(=O)OC(C)(C)C [Compound H13] | 1 | 1 | 2 | 0 | 5 | 1 | 0 | 0 | 1 | 0 | 4 | 0 |
| CC(C)=Cc1nc(-c2cncc(F)c2)cnc1N(C(=O)OC(C)(C)C)C(=O)OC(C)(C)C [Compound H14] | 1 | 0 | 2 | 0 | 4 | 1 | 0 | 0 | 2 | 0 | 3 | 2 |
| CC(C)(C)OC(=O)N(C(=O)OC(C)(C)C)c1ncc(-c2cncc(F)c2)nc1C1=CCCCC1 [Compound H15] | 1 | 0 | 0 | 0 | 2 | 0 | 0 | 0 | 0 | 0 | 0 | 0 |
| CC(C)(C)OC(=O)N(C(=O)OC(C)(C)C)c1ncc(-c2cncc(F)c2)nc1Br [Compound H16] | 1 | 0 | 1 | 0 | 3 | 2 | 0 | 0 | 1 | 0 | 1 | 0 |
| CC(C)(C)OC(=O)OCc1nc(-c2cncc(F)c2)cnc1N(C(=O)OC(C)(C)C)C(=O)OC(C)(C)C [Compound H18] | 1 | 0 | 4 | 0 | 3 | 1 | 0 | 0 | 3 | 0 | 4 | 1 |
| Cc1nc(-c2cncc(F)c2)cnc1N(C)C(=O)OC(C)(C)C [Compound H19, tert-butyl N-(3-methyl-5-(5-fluoropyridin-3-yl)-pyrazin-2-yl)-N-methyl-carbamate] | 3 | 0 | 4 | 0 | 5 | 2 | 2 | 0 | 4 | 0 | 5 | 1 |

From patent US11434221B2, “Pyrazine-4-carbamate or -urea derivatives as herbicides” (Syngenta Participations AG, priority 2017, dated 2022)
